The numbers were not newly measured in patent publication US6607711B2, “Mouth hygienic composition for the treatment of halitosis” (priority 1997, dated 2003), which cites them from elsewhere.

The conditions of this data set: amount in grams of the compound which can be dissolved per gram solvent (H2O).

As to `[Cl-].[Cl-].[Zn+2]` [Zinc chloride], the “Solubility (g/g H2O)” value was 4.3 g/g H2O.
